Data: publication PMC12470121, “Exploring the Novel Pancreatic Lipase-Inhibitory Peptides in Chlorella pyrenoidosa: Preparation, Purification, Identification, and Molecular Docking” (Foods, 2025)
One block for each molecule: values may come before it.

Assays:
pancreatic lipase (PL) [1] = biological target: T1, pancreatic lipase (PL) (Sus scrofa, UniProt P00591); assay: PL inhibition assay (pNPP substrate); assay type: biochemical, porcine; conditions: CPPH-I at 8 mg/mL vs orlistat at 8 µg/mL; p > 0.05
T1 construct: Pancreatic lipase (derived from porcine pancreas); purchased Yuanye Biotech (Shanghai, China); host or cells: porcine pancreas
T1 sequence (P00591 1-450): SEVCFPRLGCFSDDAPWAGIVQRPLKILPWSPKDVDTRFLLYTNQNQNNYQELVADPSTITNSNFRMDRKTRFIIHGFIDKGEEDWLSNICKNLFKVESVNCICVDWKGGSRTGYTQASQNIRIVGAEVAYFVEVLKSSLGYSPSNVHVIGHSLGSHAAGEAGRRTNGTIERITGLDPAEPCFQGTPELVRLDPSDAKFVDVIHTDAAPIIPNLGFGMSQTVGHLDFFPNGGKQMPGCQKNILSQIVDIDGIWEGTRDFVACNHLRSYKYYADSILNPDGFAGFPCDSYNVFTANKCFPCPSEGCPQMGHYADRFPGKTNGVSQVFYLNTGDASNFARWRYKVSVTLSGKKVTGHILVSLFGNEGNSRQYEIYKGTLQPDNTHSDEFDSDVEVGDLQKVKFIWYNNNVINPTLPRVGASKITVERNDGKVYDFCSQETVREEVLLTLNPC
Procedure: To evaluate the inhibitory activity of the peptide fractions against PL, we conducted experiments according to Zhang et al.. Briefly, a mixture containing 120 μL of PL (10 mg/mL), 40 μL of peptide sample, and 80 μL of 50 mmol/L Tris-HCl buffer (pH 8.0) was incubated at 37 °C for 10 min. Then, 160 μL of 0.8 mmol/L p-nitrophenyl palmitate (pNPP) dissolved in dimethyl sulfoxide was added to initiate the reaction. After incubation at 37 °C for 20 min, the reaction was terminated by heating in a water bath at 100 °C for 5 min, followed by centrifugation to remove precipitated material. The absorbance of 200 μL of the supernatant was measured at 405 nm using a microplate reader (Infinite® 200 PRO, Tecan, Männedorf, Switzerland). For the control group, the peptide sample was replaced with an equal volume of buffer; in the blank group, the PL solution was replaced with buffer. Finally, the activity of PL was calculated using Equation (1). (1) PL activity%=[1−B−b/(A−a)]×100% where A denotes the absorbance of the control group, B the absorbance of the sample group, a the absorbance of the control blank group, and b the absorbance of the sample blank group.

pancreatic lipase (PL) [2] = conditions: cited from earlier work
From the text: Their mechanisms of action are closely linked to a high hydrophobic amino acid content. […] Among them, the pancreatic lipase activity of VWTP was better. […] (36.28% pan ...

[3] = tested on: intracellular triglyceride accumulation; conditions: ref [15]; cited from earlier work
From the text: Their mechanisms of action are closely linked to a high hydrophobic amino acid content.

[4] = biological target: T2, Pancreatic lipase (derived from porcine pancreas) (porcine) (UniProt P00591)
T2 sequence: T1 sequence (P00591 1-450)

Molecule: CCCCCCCCCCC[C@@H](C[C@@H]1OC(=O)[C@H]1CCCCCC)OC(=O)[C@H](CC(C)C)NC=O [orlistat]
- PL-I activity compared with orlistat (pancreatic lipase (PL) [1]): no significant difference between CPPH-I and orlistat

Molecule: FYLGYCDY [peptide derived from rice bran fat extract (literature)]
- IC50 (pancreatic lipase (PL) [2]; peptide from rice bran, ref [13], read-out: Pancreatic lipase inhibition IC50): 470 ± 20 nM

Molecule: LLVVYPWTQR [peptide isolated from Chlorella (literature)]
- Pancreatic lipase inhibition (in words) (pancreatic lipase (PL) [2]; isolated from Chlorella, ref [15]): demonstrated efficacy in inhibiting pancreatic lipase
- Reduction of intracellular triglyceride accumulation (in words) [3]: reducing intracellular triglyceride accumulation

Molecule: SPFWNINAH [oat bran-derived peptide (literature)]
- Pancreatic lipase-inhibitory activity (in words) (pancreatic lipase (PL) [2]; oat bran-derived, ref [14]): activity indicates its promise as an anti-obesity drug

- PL inhibition rate at 2 mg/mL peptide (pNPP hydrolysis, absorbance at 405 nm) [4]: 7.64%
Molecule: IVGPF

- PL inhibition rate at 2 mg/mL peptide (pNPP hydrolysis, absorbance at 405 nm) [4]: 4.49%
Molecule: IPYPL

- PL inhibition rate at 2 mg/mL peptide (pNPP hydrolysis, absorbance at 405 nm) [4]: 11.5%
Molecule: FLSQPF
